Assay results from patent publication EP3064205A1, “Therapeutic use of isomeric forms of 2-(4-chlorophenyl)quinolin-4-yl)(piperidin-2-yl)methanol” (Glionova AB, priority 2015, dated 2016).
Read-outs that look alike come from different tables or passages of the source.

Legend:
Test in all cases: 3D clonogenic assay (PDX)
Type in all cases: cell-based, human
[1] = system: CXF 1297; settings: CXF 1297, Colorectal; for IC50: Homo sapiens
Protocol: (§1) The anti-tumor efficacy of S1 in the patient-derived tumor xenograft (PDX) tumor panel was assessed, where the efficacy of S1 in PDX tumor panel in the 96-well format, in 10 concentrations in duplicate was performed. Colony formation of tumor cell suspensions in a soft-agar matrix was observed and quantified. The output is IC50 values and dose response-relationships based on number of colonies in control and treatment wells, as identified by an automated image analysis algorithm. Stock solution of S1 was prepared in 100% DMSO at 10 mM concentration (stored at -20°C) and reused for each experiment. Compound final test concentrations: Dilution series ½ i.e.: 50µM, 15, 5, 1.5, 0.5, 0.15, 0.05, 0.015, 0.005 and 0.0015.
(§2) Tumor xenografts (also referred to as patient-derived tumor xenografts) were passaged as subcutaneous xenografts in NMRI nu/nu mice. Tumor xenograft were removed from mice under sterile conditions, mechanically disaggregated and subsequently incubated with an enzyme cocktail consisting of collagenase type IV (41 U/mL), DNase I (125 U/mL), hyaluronidase type III (100 U/mL) and dispase II (1.0 U/mL) in RPMI 1640 medium at 37°C for 60 - 120 minutes. Cells were passed through sieves of 100 µm and 40 µm mesh size and washed with RPMI 1640 medium. The percentage of viable cells was determined in a Neubauer-hemocytometer using trypan blue exclusion. Aliquots of the cells were frozen down, and stored in liquid nitrogen.
(§3) The clonogenic assay test was carried out in 96 well plate format. For each test a frozen aliquot of tumor cells prepared from tumor xenografts was thawed and assay plates were prepared as follows: each test well contained 3 layers of equal volume, 2 layers of semi-solid medium (bottom and top layer), and one layer of medium supernatant, with or without test compound. The bottom layer consisted of 0.05 mL/well Iscove's Modified Dulbecco's Medium (Invitrogen), supplemented with 20% (v/v) fetal calf serum (Sigma), 0.01% (w/v) gentamicin (Invitrogen) and 0.75% (w/v) agar (BD Biosciences). Tumor cells were added to 0.05 mL of the same culture medium supplemented with 0.4% (w/v) agar and plated onto the bottom layer. After 24 h, test compounds were added after serial dilution in DMSO and transfer in cell culture medium, and left on the cells for the duration of the experiment (continuous exposure, 0.05 mL drug overlay). Every dish included six untreated control wells and drug-treated groups in duplicate at 10 concentrations. Cultures were incubated at 37 °C and 7.5% CO2 in a humidified atmosphere for 8 to 13 days and monitored closely for colony growth using an inverted microscope. Within this period, ex vivo tumor growth lead to the formation of colonies with a diameter of >50 µm. At the time of maximum colony formation, counts were performed with an automatic image analysis system. 24 h prior to evaluation, vital colonies were stained with a sterile aqueous solution of 2-(4-iodophenyl)-3-(4-nitrophenyl)-5-phenyltetrazolium chloride (1 mg/mL, 100 µL/well). Sigmoidal concentration-response curves were fitted to the data points obtained for each tumor model using 4 parameter non-linear curve fit (Oncotest Warehouse Software). IC50 values are reported as relative IC50 values, being the concentration of test compound that give a response (inhibition of colony formation/viability) half way between the top and bottom plateau of the sigmoidal concentration-response curve (inflection point of the curve), or as absolute IC50 values, being the concentration of test compound at the intersection of the concentration-response curves with T/C = 50%. For calculation of mean IC50 values the geometric mean was used. Results are presented as mean graph plots or heat maps (individual IC50 values relative to the geometric mean IC50 value) over all cell lines as tested.

[2] = system: CXF 1729; settings: CXF 1729, Colorectal; for IC50: Homo sapiens
Protocol: as §1, §2, §3

[3] = system: CXF 280; settings: CXF 280, Colorectal; for IC50: Homo sapiens
Protocol: as §1, §2, §3

[4] = system: CXF 742; settings: CXF 742, Colorectal; for IC50: Homo sapiens
Protocol: as §1, §2, §3

[5] = system: CXF 975; settings: CXF 975, Colorectal; for IC50: Homo sapiens
Protocol: as §1, §2, §3

[6] = system: GXF 214; settings: GXF 214, Gastric; for IC50: Homo sapiens
Protocol: as §1, §2, §3

[7] = system: LXFA 1041; settings: LXFA 1041, Lung Adeno; for IC50: Homo sapiens
Protocol: as §1, §2, §3

[8] = system: LXFA 623; settings: LXFA 623, Lung Adeno; for IC50: Homo sapiens
Protocol: as §1, §2, §3

[9] = system: LXFA 923; settings: LXFA 923, Lung Adeno; for IC50: Homo sapiens
Protocol: as §1, §2, §3

[10] = system: LXFL 529; settings: LXFL 529, Lung Large Cell; for IC50: Homo sapiens
Protocol: as §1, §2, §3

[11] = system: PAXF 2053; settings: PAXF 2053, Pancreas; for IC50: Homo sapiens
Protocol: as §1, §2, §3

[12] = system: RXF 1114; settings: RXF 1114, Renal; for IC50: Homo sapiens
Protocol: as §1, §2, §3

[13] = system: RXF 631; settings: RXF 631, Renal; for IC50: Homo sapiens
Protocol: as §1, §2, §3

O[C@H](c1cc(-c2ccc(Cl)cc2)nc2ccccc12)[C@@H]1CCCCN1 [S1, (R)-(2-(4-chlorophenyl)quinolin-4-yl)((S)-piperidin-2-yl)methanol]
b (bottom plateau of concentration-effect curve) [1]: 15 | t (top plateau of concentration-effect curve) [1]: 90 | IC50 ([1]; read-out: abs. IC50): 6.42 µM | IC50 ([1]; read-out: rel. IC50): 6.37 µM | b (bottom plateau of concentration-effect curve) [2]: 8 | t (top plateau of concentration-effect curve) [2]: 104 | IC50 ([2]; read-out: abs. IC50): 8.87 µM | IC50 ([2]; read-out: rel. IC50): 8.82 µM | b (bottom plateau of concentration-effect curve) [3]: 5 | t (top plateau of concentration-effect curve) [3]: 101 | IC50 ([3]; read-out: abs. IC50): 8.65 µM | IC50 ([3]; read-out: rel. IC50): 8.62 µM | b (bottom plateau of concentration-effect curve) [4]: 0 | t (top plateau of concentration-effect curve) [4]: 100 | IC50 ([4]; read-out: abs. IC50): 41.3 µM | IC50 ([4]; read-out: rel. IC50): 41.3 µM | b (bottom plateau of concentration-effect curve) [5]: 19 | t (top plateau of concentration-effect curve) [5]: 105 | IC50 ([5]; read-out: abs. IC50): 8.75 µM | IC50 ([5]; read-out: rel. IC50): 8.62 µM | b (bottom plateau of concentration-effect curve) [6]: 6 | t (top plateau of concentration-effect curve) [6]: 99 | IC50 ([6]; read-out: abs. IC50): 4.92 µM | IC50 ([6]; read-out: rel. IC50): 4.89 µM | IC50 ([7]; read-out: abs. IC50): 5.3 µM | IC50 ([7]; read-out: rel. IC50): 5.25 µM | b (bottom plateau of concentration-effect curve) [7]: 10 | t (top plateau of concentration-effect curve) [7]: 95 | IC50 ([8]; read-out: abs. IC50): 4.63 µM | IC50 ([8]; read-out: rel. IC50): 4.62 µM | b (bottom plateau of concentration-effect curve) [8]: 10 | t (top plateau of concentration-effect curve) [8]: 92 | IC50 ([9]; read-out: abs. IC50): 8.55 µM | IC50 ([9]; read-out: rel. IC50): 8.44 µM | b (bottom plateau of concentration-effect curve) [9]: 21 | t (top plateau of concentration-effect curve) [9]: 101 | IC50 ([10]; read-out: abs. IC50): 10.4 µM | IC50 ([10]; read-out: rel. IC50): 10.1 µM | b (bottom plateau of concentration-effect curve) [10]: 11 | t (top plateau of concentration-effect curve) [10]: 92 | IC50 ([11]; read-out: abs. IC50): 5.87 µM | IC50 ([11]; read-out: rel. IC50): 5.67 µM | b (bottom plateau of concentration-effect curve) [11]: 18 | t (top plateau of concentration-effect curve) [11]: 101 | IC50 ([12]; read-out: abs. IC50): 8.18 µM | IC50 ([12]; read-out: rel. IC50): 7.98 µM | b (bottom plateau of concentration-effect curve) [12]: 30 | t (top plateau of concentration-effect curve) [12]: 94 | IC50 ([13]; read-out: abs. IC50): 24.6 µM | IC50 ([13]; read-out: rel. IC50): 28.1 µM | b (bottom plateau of concentration-effect curve) [13]: 0 | t (top plateau of concentration-effect curve) [13]: 91
